The source made the active and inactive calls. The rule behind the calls is not given here.

Data set [1] deals with Human immunodeficiency virus 1. As to the kind of experiment: Antiviral activity against HIV1 3B in CEM cells assessed as inhibition of viral replication. The note with it: Human immunodeficiency virus 1, 3B, CCRF-CEM. The data set is classed as functional, organism-based.
Data set [2] relates to Human immunodeficiency virus 2. As to the kind of experiment: Antiviral activity against HIV2 ROD in CEM cells assessed as inhibition of viral replication. The data set is classed as functional, organism-based. Particulars: CCRF-CEM.
The nature of data set [3]: Cytotoxicity against human CEM cells. The data set is classed as cell-based. Particulars: CEM (CCRF-CEM) cells.

What is called EC50 is the concentration giving half of the maximal effect. Usually CC50 stands for the concentration that lowers cell viability or growth by half. Lower therefore signals harm at low concentration. As for `Cc1cn([C@@H]2O[C@H](CO[Si](C)(C)C(C)(C)C)[C@@]3(OS(=O)(=O)C=C3N)[C@H]2O[Si](C)(C)C(C)(C)C)c(=O)n(C(=O)OC(C)(C)C)c1=O`, the EC50 in data set [1] stood at 23 nM. Moreover, the outcome in data set [2] was inactive. Further, it took 26200 nM to reach half-maximal cytotoxicity in data set [3] (CC50).
Turning to `Cc1cn([C@@H]2O[C@H](CO[Si](C)(C)C(C)(C)C)[C@@]3(OS(=O)(=O)C=C3N)[C@H]2O[Si](C)(C)C(C)(C)C)c(=O)[nH]c1=O`, the EC50 in data set [1] was 60 nM. Also, in data set [2], the result was inactive.
Turning to `Cc1cn([C@@H]2O[C@H](CO[Si](C)(C)C(C)(C)C)[C@@]3(OS(=O)(=O)C=C3N)[C@H]2O[Si](C)(C)C(C)(C)C)c(=O)n(C)c1=O`, the concentration giving a half-maximal response (EC50) in data set [1] came to 130 nM. The outcome in data set [2] was inactive.
